Experimental data from patent publication US20170073337A1, “DIHYDROTHIAZINE AND DIHYDROOXAZINE DERIVATIVES HAVING BACE1 INHIBITORY ACTIVITY” (Shionogi & Co., Ltd., priority 2014, published 2017).

How the values were obtained:
[1] = Brain distribution studies; assay type: in vivo; settings: rat, brain / plasma, iv, 0.5 mg/mL/kg, 30 minutes later, area ratio brain/plasma
Description: Compound of the present invention was intravenously administered to a rat at 0.5 mg/mL/kg dosage. 30 minutes later, all blood was drawn from the abdominal aorta under isoflurane anesthesia for death from exsanguination. […] The obtained blood was used as plasma after centrifuging. The control plasma was added to the brain sample at 1:1. The control brain homogenate was added to the plasma sample at 1:1. Each sample was measured using LC/MS/MS. The obtained area ratio (a brain/plasma) was used for the brain Kp value.

Recombinant human BACE1 = molecular target: T1, Recombinant human BACE1 (Homo sapiens, UniProt P56817); assay: Assay of BACE1 inhibitory activity: 384-well; assay type: biochemical; settings: Assay format 384-well
T1 construct: purchased R&D Systems
T1 sequence (P56817 46-501): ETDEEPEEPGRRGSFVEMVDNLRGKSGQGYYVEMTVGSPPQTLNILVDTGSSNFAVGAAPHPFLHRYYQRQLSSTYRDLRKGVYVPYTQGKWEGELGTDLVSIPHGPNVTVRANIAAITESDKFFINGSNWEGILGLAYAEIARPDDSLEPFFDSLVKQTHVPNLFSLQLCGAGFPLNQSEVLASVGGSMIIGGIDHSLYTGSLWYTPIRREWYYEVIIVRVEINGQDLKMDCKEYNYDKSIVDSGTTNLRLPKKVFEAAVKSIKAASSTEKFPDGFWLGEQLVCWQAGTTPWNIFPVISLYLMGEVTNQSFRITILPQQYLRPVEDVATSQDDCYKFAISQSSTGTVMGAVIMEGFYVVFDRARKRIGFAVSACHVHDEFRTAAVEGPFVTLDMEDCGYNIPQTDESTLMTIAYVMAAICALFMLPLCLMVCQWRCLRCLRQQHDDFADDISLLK
Method in brief: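 Recombinant human BACE1 was incubated 2 h at 25 °C with a biotin/Eu-cryptate-labelled peptide substrate and compound in DMSO. Streptavidin-XL665 in pH 7.0 phosphate buffer containing 0.8 mol/L KF was then added for 30 min at 25 °C for HTRF detection.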

[2] = Pharmacokinetic study (oral absorption); assay type: in vivo; settings: bioavailability from AUCs of oral and intravenous administration; mouse or rat
Description: (1l) Animal: mouse or rat (2) Breeding conditions: mouse or rat was allowed free access to the tap water and the solid food. (3) Dose and grouping: orally or intravenously administered at a predetermined dose: grouping was as follows (Dose depends on the compound) Oral administration: 1 to 30 mg/kg (n=2 to 3) Intravenous administration: 0.5 to 10 mg/kg (n=2 to 3) (4) Dosing formulation: for oral administration, in a solution or a suspension state; for intravenous administration, in a solubilized state (5) Dosing method: in oral administration, forcedly administer using a syringe attached a flexible feeding tube; in intravenous administration, administer from caudal vein using a syringe attached with a needle. (6) Evaluation items: blood was collected at the scheduled time, and the plasma concentration of the compound of the present invention was measured by LC/MS/MS (7) Statistical analysis: regarding the transition of the plasma concentration of the compound of the present invention, the area under the plasma concentration-time curve (AUC) was calculated by non-linear least squares program WinNonlin (Registered trademark), and the bioavailability (BA) of the compound of the present invention was calculated from the AUCs of the oral administration group and intravenous administration group

P-gp = molecular target: T2, P-gp (Mus musculus, UniProt P21447); assay: P-gp substrate test using mdr1a (−/−) B6 mice; assay type: in vivo; settings: mdr1a (−/−) B6 (KO) and C57BL/6J (wild), mouse, brain / plasma, po, 2 mg/kg, Kp in KO mouse (mdr1a (−/−) B6) / Kp in Wild mouse, read-out: Kp ratio (2 mg/kg, po, 2 hr)
T2 construct: from tissue; host or cells: living mice (brain/plasma distribution), wild type versus mdr1a (−/−)
T2 sequence (P21447 whole entry): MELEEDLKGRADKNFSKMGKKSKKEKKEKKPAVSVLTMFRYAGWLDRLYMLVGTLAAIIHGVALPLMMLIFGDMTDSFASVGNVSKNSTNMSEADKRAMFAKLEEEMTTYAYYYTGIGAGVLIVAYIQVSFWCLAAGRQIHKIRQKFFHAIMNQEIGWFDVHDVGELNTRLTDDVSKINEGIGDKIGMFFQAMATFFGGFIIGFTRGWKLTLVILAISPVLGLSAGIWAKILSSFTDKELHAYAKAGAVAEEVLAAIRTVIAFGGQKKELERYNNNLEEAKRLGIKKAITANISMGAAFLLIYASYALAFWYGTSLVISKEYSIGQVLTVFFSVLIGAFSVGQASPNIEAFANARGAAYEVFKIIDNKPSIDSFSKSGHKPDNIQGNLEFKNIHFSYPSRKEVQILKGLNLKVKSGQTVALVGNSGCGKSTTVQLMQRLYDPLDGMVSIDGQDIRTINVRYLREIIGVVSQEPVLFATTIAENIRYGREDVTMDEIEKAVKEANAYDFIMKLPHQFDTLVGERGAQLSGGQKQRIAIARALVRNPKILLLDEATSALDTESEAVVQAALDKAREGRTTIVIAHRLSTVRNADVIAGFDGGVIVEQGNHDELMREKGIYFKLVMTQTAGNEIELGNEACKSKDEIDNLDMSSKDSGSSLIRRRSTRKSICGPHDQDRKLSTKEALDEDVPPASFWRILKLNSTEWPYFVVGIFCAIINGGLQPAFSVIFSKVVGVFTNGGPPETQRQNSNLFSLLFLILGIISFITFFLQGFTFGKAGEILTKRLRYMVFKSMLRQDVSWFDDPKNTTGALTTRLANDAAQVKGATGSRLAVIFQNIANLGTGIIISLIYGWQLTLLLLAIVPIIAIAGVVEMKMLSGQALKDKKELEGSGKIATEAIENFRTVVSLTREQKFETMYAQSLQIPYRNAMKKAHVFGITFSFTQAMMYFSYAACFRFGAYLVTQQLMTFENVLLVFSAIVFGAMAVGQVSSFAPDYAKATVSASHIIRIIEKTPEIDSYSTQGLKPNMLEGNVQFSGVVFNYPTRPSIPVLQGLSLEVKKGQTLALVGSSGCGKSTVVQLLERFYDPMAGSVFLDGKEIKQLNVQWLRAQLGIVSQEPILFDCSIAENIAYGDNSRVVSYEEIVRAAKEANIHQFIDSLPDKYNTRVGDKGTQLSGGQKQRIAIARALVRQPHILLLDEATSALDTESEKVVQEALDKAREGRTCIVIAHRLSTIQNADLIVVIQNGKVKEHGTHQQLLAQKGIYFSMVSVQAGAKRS
Description: Animal: mdrla (−/−) B6 mice (KO mouse) or […] mice (Wild mouse)
1. Animals may be fed prior to dosing of the compounds of the present invention. 2. The compounds of the present invention were dosed to three animals for each time point and blood and brain samples were removed at selected time points (e.g. 15 min, 30 min, 1 hr, 2 hr, 4 hr, 6 hr, 8 hr, or 24 hr) after dosing. Blood (0.3-0.7 mL) was collected via trunk blood collection with syringe containing anticoagulants (EDTA and heparin). Blood and tissue (e.g. brain) samples were immediately placed on melting ice. 3. Blood samples were centrifuged (1780×g for 10 minutes) for cell removal to obtain plasma. Then, plasma samples were transferred to a clean tube and stored in a −70° C. freezer until analysis. 4. Tissue (e.g. brain) samples were homogenized at a 1:3 ratio of tissue weight to ml of stilled water and transferred to a clean tube and stored in a −70° C. freezer until analysis. 5. Plasma and tissue (e.g. brain) samples were prepared using protein prceipitation and analyzed by LC/MS/MS. The analytical method was calibrated by including a standard curve constructed with blank plasma or brain samples and known quantities of analyte. Quality control samples were included to monitor the accuracy and precision of the methodology. 6. Plasma and brain concentration values (ng/mL and ng/g) were introduced into an appropriate tool used for calculating the pharmacokinetic parameters. A common platform was the WinNonlin (Registered trademark) pharmacokinetic software modeling program.
Kp: Tissue to Plasma concentration ratio Kp ratio=Kp in KO mouse/Kp in Wild mouse KO/Wild ratio of AUC Tissue/AUC Plasma ={AUC Tissue/AUC Plasma (KO mouse)}/{AUC Tissue/AUC Plasma (Wild mouse)}

| Structure (SMILES) | IC50 (Recombinant human BACE1) [µM] | further results |
| --- | --- | --- |
| COC[C@H]1SC(N)=N[C@](C)(c2cc(NC(=O)c3cnc(OCF)cn3)ccc2F)[C@H]1F [Compound I-91] | 0.00637 | Kp at 0.5 h [1]: 1 |
| CO[C@H]1[C@@H](CF)OC(N)=N[C@]1(C)c1cc(NC(=O)c2cnc(OCF)cn2)ccc1F [Compound I-24] | – | BA_% [2]: 44% |
| CC(F)(F)[C@H]1OC(N)=N[C@](C)(c2cc(NC(=O)c3cnc(OCC(F)F)cn3)ccc2F)[C@H]1F [Compound I-77] | 0.0458 | – |
| C[C@H]1SC(N)=N[C@](C)(c2cc(NC(=O)c3ccc(OCF)cn3)ccc2F)[C@H]1F [Compound I-51] | 0.0175 | – |
| C[C@H]1SC(N)=N[C@](C)(c2cc(NC(=O)c3cnc(OCC(F)F)cn3)ccc2F)[C@H]1F [Compound I-48] | 0.00749 | Kp at 0.5 h [1]: 2.1; Kp at 2 h (P-gp): 5.57 |
| CC(F)(F)[C@H]1OC(N)=N[C@](C)(c2cc(NC(=O)c3cnc(OCC(F)(F)F)cn3)ccc2F)[C@H]1F [Compound I-75] | 0.0156 | – |
| C[C@]1(c2cc(NC(=O)c3cnc(OCF)cn3)ccc2F)N=C(N)O[C@H](C(F)(F)C2CC2)[C@@H]1F [Compound I-82] | 0.0251 | – |
| C[C@]1(c2cc(NC(=O)c3cnc(OCF)cn3)ccc2F)N=C(N)S[C@H](CO)[C@@H]1F [Compound I-109] | 0.0108 | – |
| C[C@]1(c2cc(NC(=O)c3ccc(C#N)cn3)ccc2F)N=C(N)O[C@H](C(F)(F)C2CC2)[C@@H]1F [Compound I-81] | 0.0169 | – |
| C[C@H]1SC(N)=N[C@](C)(c2cc(NC(=O)c3cnc(C(F)F)cn3)ccc2F)[C@H]1F [Compound I-65] | 0.0219 | Kp at 0.5 h [1]: 1.7 |
| C[C@H]1SC(N)=N[C@](C)(c2cc(NC(=O)c3ccc(F)cn3)ccc2F)C12CC(F)(F)C2 [Compound I-63] | 0.0119 | – |
| CO[C@H]1[C@@H](C)SC(N)=N[C@]1(C)c1cc(NC(=O)c2ccc(F)cn2)ccc1F [Compound I-89] | 0.0151 | – |
| C[C@H]1SC(N)=N[C@](C)(c2cc(NC(=O)c3ncc(OCC(F)(F)F)cn3)ccc2F)[C@H]1F [Compound I-53] | 0.0145 | – |
| COc1cnc(C(=O)Nc2ccc(F)c([C@@]3(C)N=C(N)O[C@H](C(F)F)[C@@H]3C)c2)cn1 [Compound I-86] | 0.101 | – |
| C[C@@H](F)[C@H]1OC(N)=N[C@](C)(c2cc(NC(=O)c3ccc(C#N)cn3)ccc2F)[C@H]1F [Compound I-15] | – | BA_% [2]: 37.4%; Kp at 0.5 h [1]: 0.79 |
| COc1cnc(C(=O)Nc2ccc(F)c([C@@]3(C)N=C(N)O[C@H](C(F)(F)C4CC4)[C@@H]3F)c2)cn1 [Compound I-83] | 0.0303 | – |
| COc1cnc(C(=O)Nc2ccc(F)c([C@@]3(C)N=C(N)O[C@H]([C@@H](C)F)[C@@H]3F)c2)cn1 [Compound I-71] | 0.012 | – |
| C[C@H]1[C@@H](C(F)(F)F)OC(N)=N[C@]1(C)c1cc(NC(=O)c2ccc(C#N)cn2)ccc1F [Compound I-28] | – | Kp at 2 h (P-gp): 5.41 |
| COc1ccc(C(=O)Nc2ccc(F)c([C@@]3(C)N=C(N)S[C@H](C)[C@@H]3F)c2)nc1 [Compound I-50] | 0.00777 | – |
| C[C@H]1SC(N)=N[C@](C)(c2cc(NC(=O)c3ncc(C#N)cc3Cl)ccc2F)[C@H]1F [Compound I-64] | 0.00706 | – |
| C[C@H]1[C@@H](C(F)(F)F)OC(N)=N[C@]1(C)c1cc(NC(=O)c2cnc(OCF)cn2)ccc1F [Compound I-30] | – | Kp at 0.5 h [1]: 3.2; Kp at 2 h (P-gp): 3.63 |
| COc1cnc(C(=O)Nc2cccc([C@@]3(C)N=C(N)S[C@H](C)[C@@H]3F)c2)cn1 [Compound I-103] | 0.0173 | – |
| CO[C@H]1[C@@H](C)SC(N)=N[C@]1(C)c1cc(NC(=O)c2ccc(C#N)cn2)ccc1F [Compound I-88] | 0.0144 | – |

| Structure (SMILES) | IC50 (Recombinant human BACE1) [µM] | further results |
| --- | --- | --- |
| CC[C@H]1SC(N)=N[C@](C)(c2cc(NC(=O)c3cnc(OCF)cn3)ccc2F)[C@H]1F [Compound I-66] | 0.00562 | – |
| C[C@]1(c2cc(NC(=O)c3ccc(C#N)cn3)ccc2F)N=C(N)O[C@H](CF)[C@@H]1OCC(F)(F)F [Compound I-10] | – | BA_% [2]: 46.3%; Kp at 0.5 h [1]: 1.1 |
| CO[C@H]1[C@@H](CF)OC(N)=N[C@]1(C)c1cc(NC(=O)c2cnc(OCF)cn2)ccc1Cl [Compound I-19] | – | BA_% [2]: 39.1%; Kp at 0.5 h [1]: 0.51 |
| C[C@H]1SC(N)=N[C@](C)(c2cc(NC(=O)c3coc(CF)n3)ccc2F)[C@H]1F [Compound I-49] | 0.00313 | – |
| COc1cnc(C(=O)Nc2ccc(F)c([C@@]3(C)N=C(N)SCC34CC(F)(F)C4)c2)cn1 [Compound I-55] | 0.0198 | – |
| C[C@]1(c2cc(NC(=O)c3ccc(C#N)cn3)ccc2F)N=C(N)SCC12CC(F)(F)C2 [Compound I-59] | 0.0109 | – |
| C[C@]1(c2cc(NC(=O)c3ccc(OCF)cn3)ccc2F)N=C(N)O[C@H](C2(F)CC2)[C@@H]1F [Compound I-101] | 0.0253 | – |
| CC#CCOc1cnc(C(=O)Nc2ccc(F)c([C@@]3(C)N=C(N)O[C@H](C(C)(F)F)[C@@H]3F)c2)cn1 [Compound I-76] | 0.00377 | – |
| C[C@]1(c2cc(NC(=O)c3ccc(C#N)cn3)ccc2F)N=C(N)O[C@H](C2(F)CC2)[C@@H]1F [Compound I-96] | 0.0212 | – |
| CC[C@H]1SC(N)=N[C@](C)(c2cc(NC(=O)c3ccc(F)cn3)ccc2F)[C@H]1F [Compound I-70] | 0.0106 | – |
| CO[C@H]1[C@@H](C)SC(N)=N[C@]1(C)c1cc(NC(=O)c2cnc(OCF)cn2)ccc1F [Compound I-87] | 0.0214 | – |
| CC[C@H]1SC(N)=N[C@](C)(c2cc(NC(=O)c3ccc(OCF)cn3)ccc2F)[C@H]1F [Compound I-67] | 0.00547 | – |
| COc1ccc(C(=O)Nc2ccc(F)c([C@@]3(C)N=C(N)S[C@H](C)[C@@H]3F)c2)nn1 [Compound I-108] | 0.136 | – |
| C[C@H]1SC(N)=N[C@](C)(c2cc(NC(=O)c3cnc(OCC4CC4)cn3)ccc2F)[C@H]1F [Compound I-85] | 0.0154 | – |
| C[C@H]1SC(N)=N[C@](C)(c2cccc(NC(=O)c3cnc(C(F)F)cn3)c2)[C@H]1F [Compound I-106] | 0.0194 | – |
| Cc1cc(C#N)cnc1C(=O)Nc1ccc(F)c([C@@]2(C)N=C(N)S[C@H](C)[C@@H]2F)c1 [Compound I-52] | 0.00762 | BA_% [2]: 39.1%; Kp at 0.5 h [1]: 0.63 |
| C[C@]1(c2cc(NC(=O)c3cnc(OCF)cn3)ccc2F)N=C(N)O[C@H](CF)[C@@H]1OCC(F)(F)F [Compound I-12] | – | BA_% [2]: 47.4%; Kp at 0.5 h [1]: 1 |
| COc1cnc(C(=O)Nc2ccc(F)c([C@@]3(C)N=C(N)S[C@H](C)[C@@H]3OC)c2)cn1 [Compound I-90] | 0.0153 | – |
| C[C@H]1SC(N)=N[C@](C)(c2cccc(NC(=O)c3cnc(OCF)cn3)c2)[C@H]1F [Compound I-104] | 0.0108 | – |
| C[C@]1(c2cc(NC(=O)c3ccc(C#N)cn3)ccc2F)N=C(N)O[C@H]2[C@@H]1OCC2(F)F [Compound I-35] | – | Kp at 2 h (P-gp): 5.15 |
| COCC(F)(F)[C@H]1OC(N)=N[C@](C)(c2cc(NC(=O)c3cnc(OCF)cn3)ccc2F)[C@H]1F [Compound I-79] | 0.0132 | – |
| C[C@H](F)[C@H]1OC(N)=N[C@](C)(c2cc(NC(=O)c3ccc(C#N)cn3)ccc2F)[C@H]1F [Compound I-13] | – | BA_% [2]: 47.3%; Kp at 0.5 h [1]: 0.56 |
| C[C@H]1SC(N)=N[C@](C)(c2cc(NC(=O)c3cnc(OCF)cn3)ccc2F)C12CC(F)(F)C2 [Compound I-62] | 0.00774 | Kp at 0.5 h [1]: 4.8 |
